In ChEMBL document CHEMBL3885861, “Open TG-GATES”:

Organism: Rattus norvegicus
Assay: Open TG-GATES - Regimen: Single
Assay type: toxicity, organism-based, Sprague-Dawley
Design: regimen Single, gender Male, age 6 weeks
Conditions: in vivo, po, 20 mg/kg, route gavage, dose level Middle; for APTT / Bas / Eos / Fbg / Hb / Ht / Lym / MCH / MCHC / MCV / Mono / Neu / PT / Plat / RBC / Ret / WBC: tissue Blood; for LIVER: tissue Liver; for A/G / ALP / ALT / AST / BUN / CRE / Ca / Cl / DBIL / GLC / IP / K / LDH / Na / PL / RALB / TBIL / TC / TG / TP / gamma-GTP: tissue Plasma

O=[N+]([O-])c1ccc(O)c([N+](=O)[O-])c1 [2,4-DINITROPHENOL]
TERMINAL_BW (3 h): 203.6 g | APTT (3 h): 16.6 s | Bas (3 h): 0% | Eos (3 h): 1% | Fbg (3 h): 246.4 mg/dL | Hb (3 h): 12.6 g/dL | Ht (3 h): 37.5% | Lym (3 h): 75% | MCH (3 h): 22 pg | MCHC (3 h): 33.5% | MCV (3 h): 65.6 fL | Mono (3 h): 11.8% | Neu (3 h): 12.4% | PT (3 h): 11.8 s | Plat (3 h): 115.4 x10_4/uL | RBC (3 h): 572.2 x10_4/ul | Ret (3 h): 10.2% | WBC (3 h): 93.4 x10_2/uL | LIVER (3 h): 9.5 g | A/G (3 h): 2.3 | ALP (3 h): 1342.4 IU/L | ALT (3 h): 37.8 IU/L | AST (3 h): 62.6 IU/L | BUN (3 h): 12.8 mg/dL | CRE (3 h): 0.4 mg/dL | Ca (3 h): 11.9 mg/dL | Cl (3 h): 104 meq/L | DBIL (3 h): 0.012 mg/dL | GLC (3 h): 218.2 mg/dL | IP (3 h): 10.9 mg/dL | K (3 h): 4.2 meq/L | LDH (3 h): 125.2 IU/L | Na (3 h): 138.4 meq/L | PL (3 h): 143 mg/dL | RALB (3 h): 3.8 g/dL | TBIL (3 h): 0.036 mg/dL | TC (3 h): 85.4 mg/dL | TG (3 h): 68.6 mg/dL | TP (3 h): 5.5 g/dL | gamma-GTP (3 h): 0 IU/L | TERMINAL_BW (6 h): 200.1 g | APTT (6 h): 16 s | Bas (6 h): 0% | Eos (6 h): 1.2% | Fbg (6 h): 235 mg/dL | Hb (6 h): 13.1 g/dL | Ht (6 h): 39.1% | Lym (6 h): 71.4% | MCH (6 h): 22 pg | MCHC (6 h): 33.6% | MCV (6 h): 65.5 fL | Mono (6 h): 10.2% | Neu (6 h): 17.2% | PT (6 h): 12 s | Plat (6 h): 124 x10_4/uL | RBC (6 h): 596.4 x10_4/ul | Ret (6 h): 8.9% | WBC (6 h): 111 x10_2/uL | LIVER (6 h): 8.2 g | A/G (6 h): 2.6 | ALP (6 h): 1422.2 IU/L | ALT (6 h): 36.4 IU/L | AST (6 h): 78.6 IU/L | BUN (6 h): 12.2 mg/dL | CRE (6 h): 0.4 mg/dL | Ca (6 h): 11 mg/dL | Cl (6 h): 105.8 meq/L | DBIL (6 h): 0.02 mg/dL | GLC (6 h): 204.6 mg/dL | IP (6 h): 10.9 mg/dL | K (6 h): 4.5 meq/L | LDH (6 h): 129.2 IU/L | Na (6 h): 139.2 meq/L | PL (6 h): 141.2 mg/dL | RALB (6 h): 3.9 g/dL | TBIL (6 h): 0.044 mg/dL | TC (6 h): 85.6 mg/dL | TG (6 h): 46.4 mg/dL | TP (6 h): 5.4 g/dL | gamma-GTP (6 h): 0 IU/L | TERMINAL_BW (9 h): 203.1 g | APTT (9 h): 16.2 s | Bas (9 h): 0% | Eos (9 h): 0.8% | Fbg (9 h): 255.5 mg/dL | Hb (9 h): 12.9 g/dL | Ht (9 h): 38.4% | Lym (9 h): 77.2% | MCH (9 h): 22.1 pg | MCHC (9 h): 33.8% | MCV (9 h): 65.4 fL | Mono (9 h): 4.8% | Neu (9 h): 17.2% | PT (9 h): 12 s | Plat (9 h): 132.8 x10_4/uL | RBC (9 h): 587.2 x10_4/ul | Ret (9 h): 10.4% | WBC (9 h): 104.5 x10_2/uL | LIVER (9 h): 8.5 g | A/G (9 h): 2.4 | ALP (9 h): 1370.8 IU/L | ALT (9 h): 34 IU/L | AST (9 h): 64.5 IU/L | BUN (9 h): 10.5 mg/dL | CRE (9 h): 0.4 mg/dL | Ca (9 h): 11.3 mg/dL | Cl (9 h): 104.5 meq/L | DBIL (9 h): 0.02 mg/dL | GLC (9 h): 198.5 mg/dL | IP (9 h): 11.2 mg/dL | K (9 h): 4.7 meq/L | LDH (9 h): 158 IU/L | Na (9 h): 139 meq/L | PL (9 h): 153.8 mg/dL | RALB (9 h): 3.9 g/dL | TBIL (9 h): 0.045 mg/dL | TC (9 h): 83.5 mg/dL | TG (9 h): 70.2 mg/dL | TP (9 h): 5.6 g/dL | gamma-GTP (9 h): 0 IU/L | TERMINAL_BW (24 h): 216.8 g | APTT (24 h): 15.6 s | Bas (24 h): 0% | Eos (24 h): 1.2% | Fbg (24 h): 234.2 mg/dL | Hb (24 h): 12.9 g/dL | Ht (24 h): 38.4% | Lym (24 h): 70.4% | MCH (24 h): 21.6 pg | MCHC (24 h): 33.7% | MCV (24 h): 64.2 fL | Mono (24 h): 11.6% | Neu (24 h): 16.8% | PT (24 h): 11.7 s | Plat (24 h): 125.6 x10_4/uL | RBC (24 h): 597.8 x10_4/ul | Ret (24 h): 9% | WBC (24 h): 122.2 x10_2/uL | LIVER (24 h): 11.1 g | A/G (24 h): 2.4 | ALP (24 h): 1483.4 IU/L | ALT (24 h): 43.2 IU/L | AST (24 h): 67.2 IU/L | BUN (24 h): 16 mg/dL | CRE (24 h): 0.4 mg/dL | Ca (24 h): 11.3 mg/dL | Cl (24 h): 103.2 meq/L | DBIL (24 h): 0.01 mg/dL | GLC (24 h): 182.2 mg/dL | IP (24 h): 7.2 mg/dL | K (24 h): 4.6 meq/L | LDH (24 h): 101.4 IU/L | Na (24 h): 139 meq/L | PL (24 h): 163.8 mg/dL | RALB (24 h): 3.9 g/dL | TBIL (24 h): 0.032 mg/dL | TC (24 h): 90 mg/dL | TG (24 h): 131.8 mg/dL | TP (24 h): 5.5 g/dL | gamma-GTP (24 h): 0.8 IU/L
